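Compound exposure: 48 hours, 5 concentrations, 96-well plates. TGI denotes the concentration required for complete inhibition of growth.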
Assays:
Assay in all cases: DTP human tumour cell line panel, 48 h
OVCAR-3 ovarian = test system: OVCAR-3 ovarian
SF-268 CNS = test system: SF-268 CNS
NCI-H226 lung = test system: NCI-H226 lung
DLD-1 colon = test system: DLD-1 colon
SN12C renal = test system: SN12C renal
CCRF-CEM leukemia = test system: CCRF-CEM leukemia
SK-MEL-5 melanoma = test system: SK-MEL-5 melanoma
OVCAR-8 ovarian = test system: OVCAR-8 ovarian
A549 NSCLC = test system: A549 NSCLC
NCI-H522 lung = test system: NCI-H522 lung
HCT-15 colon = test system: HCT-15 colon
HOP-92 NSCLC = test system: HOP-92 NSCLC
NCI-H23 lung = test system: NCI-H23 lung
XF 498 CNS = test system: XF 498 CNS
A498 renal = test system: A498 renal
COLO 205 colon = test system: COLO 205 colon
KM20L2 colon = test system: KM20L2 colon
NCI-H460 lung = test system: NCI-H460 lung
MOLT-4 leukemia = test system: MOLT-4 leukemia
TK-10 renal = test system: TK-10 renal
U251 CNS = test system: U251 CNS
SK-OV-3 ovarian = test system: SK-OV-3 ovarian
MALME-3M melanoma = test system: MALME-3M melanoma
HCT-116 colon = test system: HCT-116 colon
M19-MEL melanoma = test system: M19-MEL melanoma
SK-MEL-2 melanoma = test system: SK-MEL-2 melanoma
HOP-62 NSCLC = test system: HOP-62 NSCLC
DMS 273 small cell lung = test system: DMS 273 small cell lung
SK-MEL-28 melanoma = test system: SK-MEL-28 melanoma
IGROV1 ovarian = test system: IGROV1 ovarian
RPMI-8226 leukemia = test system: RPMI-8226 leukemia
SNB-19 CNS = test system: SNB-19 CNS
SW-620 colon = test system: SW-620 colon
RXF-631 renal = test system: RXF-631 renal
UO-31 renal = test system: UO-31 renal
SF-539 CNS = test system: SF-539 CNS
K-562 leukemia = test system: K-562 leukemia
EKVX NSCLC = test system: EKVX NSCLC
SNB-75 CNS = test system: SNB-75 CNS
OVCAR-5 ovarian = test system: OVCAR-5 ovarian
UACC-62 melanoma = test system: UACC-62 melanoma
DMS 114 small cell lung = test system: DMS 114 small cell lung
M14 melanoma = test system: M14 melanoma
ACHN renal = test system: ACHN renal
786-0 renal = test system: 786-0 renal
HT29 colon = test system: HT29 colon
SF-295 CNS = test system: SF-295 CNS
KM12 colon = test system: KM12 colon
CAKI-1 renal = test system: CAKI-1 renal
OVCAR-4 ovarian = test system: OVCAR-4 ovarian
HCC-2998 colon = test system: HCC-2998 colon
SNB-78 CNS = test system: SNB-78 CNS
HL-60(TB) leukemia = test system: HL-60(TB) leukemia
UACC-257 melanoma = test system: UACC-257 melanoma
HOP-18 NSCLC = test system: HOP-18 NSCLC
LXFL 529 NSCLC = test system: LXFL 529 NSCLC
RXF 393 renal = test system: RXF 393 renal
LOX IMVI melanoma = test system: LOX IMVI melanoma
SR leukemia = test system: SR leukemia

Nn1c(-c2ccccc2Cl)nc2ccccc2c1=O
TGI (OVCAR-3 ovarian): > 100 µM
TGI (SF-268 CNS): > 100 µM
TGI (NCI-H226 lung): > 100 µM
TGI (DLD-1 colon): > 100 µM
TGI (SN12C renal): > 100 µM
TGI (CCRF-CEM leukemia): > 100 µM
TGI (SK-MEL-5 melanoma): > 100 µM
TGI (OVCAR-8 ovarian): > 100 µM
TGI (A549 NSCLC): > 100 µM
TGI (NCI-H522 lung): > 100 µM
TGI (HCT-15 colon): > 100 µM
TGI (HOP-92 NSCLC): > 100 µM
TGI (NCI-H23 lung): > 100 µM
TGI (XF 498 CNS): > 100 µM
TGI (A498 renal): > 100 µM
TGI (COLO 205 colon): > 100 µM
TGI (KM20L2 colon): > 100 µM
TGI (NCI-H460 lung): > 100 µM
TGI (MOLT-4 leukemia): > 100 µM
TGI (TK-10 renal): > 100 µM
TGI (U251 CNS): > 100 µM
TGI (SK-OV-3 ovarian): > 100 µM
TGI (MALME-3M melanoma): > 100 µM
TGI (HCT-116 colon): > 100 µM
TGI (M19-MEL melanoma): > 100 µM
TGI (SK-MEL-2 melanoma): > 100 µM
TGI (HOP-62 NSCLC): > 100 µM
TGI (DMS 273 small cell lung): > 100 µM
TGI (SK-MEL-28 melanoma): > 100 µM
TGI (IGROV1 ovarian): > 100 µM
TGI (RPMI-8226 leukemia): > 100 µM
TGI (SNB-19 CNS): > 100 µM
TGI (SW-620 colon): > 100 µM
TGI (RXF-631 renal): > 100 µM
TGI (UO-31 renal): > 100 µM
TGI (SF-539 CNS): > 100 µM
TGI (K-562 leukemia): > 100 µM
TGI (EKVX NSCLC): > 100 µM
TGI (SNB-75 CNS): > 100 µM
TGI (OVCAR-5 ovarian): > 100 µM
TGI (UACC-62 melanoma): > 100 µM
TGI (DMS 114 small cell lung): > 100 µM
TGI (M14 melanoma): > 100 µM
TGI (ACHN renal): > 100 µM
TGI (786-0 renal): > 100 µM
TGI (HT29 colon): > 100 µM
TGI (SF-295 CNS): > 100 µM
TGI (KM12 colon): > 100 µM
TGI (CAKI-1 renal): > 100 µM
TGI (OVCAR-4 ovarian): > 100 µM
TGI (HCC-2998 colon): > 100 µM
TGI (SNB-78 CNS): > 100 µM
TGI (HL-60(TB) leukemia): > 100 µM
TGI (UACC-257 melanoma): > 100 µM
TGI (HOP-18 NSCLC): > 100 µM
TGI (LXFL 529 NSCLC): > 100 µM

Cc1ccc(Oc2ccc(C)cc2[N+](=O)[O-])cc1
TGI (OVCAR-3 ovarian): > 100 µM
TGI (SF-268 CNS): > 100 µM
TGI (NCI-H226 lung): > 100 µM
TGI (DLD-1 colon): > 100 µM
TGI (SN12C renal): > 100 µM
TGI (CCRF-CEM leukemia): > 100 µM
TGI (SK-MEL-5 melanoma): 92.6 µM
TGI (OVCAR-8 ovarian): > 100 µM
TGI (A549 NSCLC): > 100 µM
TGI (RXF 393 renal): 92.7 µM
TGI (HCT-15 colon): > 100 µM
TGI (HOP-92 NSCLC): > 100 µM
TGI (NCI-H23 lung): > 100 µM
TGI (XF 498 CNS): 64.5 µM
TGI (A498 renal): > 100 µM
TGI (COLO 205 colon): > 100 µM
TGI (KM20L2 colon): > 100 µM
TGI (NCI-H460 lung): > 100 µM
TGI (MOLT-4 leukemia): > 100 µM
TGI (TK-10 renal): > 100 µM
TGI (U251 CNS): > 100 µM
TGI (SK-OV-3 ovarian): > 100 µM
TGI (MALME-3M melanoma): > 100 µM
TGI (HCT-116 colon): > 100 µM
TGI (M19-MEL melanoma): > 100 µM
TGI (SK-MEL-2 melanoma): > 100 µM
TGI (HOP-62 NSCLC): > 100 µM
TGI (DMS 273 small cell lung): > 100 µM
TGI (SK-MEL-28 melanoma): > 100 µM
TGI (IGROV1 ovarian): > 100 µM
TGI (RPMI-8226 leukemia): > 100 µM
TGI (SW-620 colon): > 100 µM
TGI (RXF-631 renal): > 100 µM
TGI (UO-31 renal): > 100 µM
TGI (SF-539 CNS): > 100 µM
TGI (K-562 leukemia): > 100 µM
TGI (EKVX NSCLC): > 100 µM
TGI (SNB-75 CNS): > 100 µM
TGI (OVCAR-5 ovarian): > 100 µM
TGI (UACC-62 melanoma): > 100 µM
TGI (DMS 114 small cell lung): > 100 µM
TGI (M14 melanoma): > 100 µM
TGI (ACHN renal): > 100 µM
TGI (HT29 colon): > 100 µM
TGI (SF-295 CNS): > 100 µM
TGI (KM12 colon): > 100 µM
TGI (OVCAR-4 ovarian): > 100 µM
TGI (HCC-2998 colon): > 100 µM
TGI (SNB-78 CNS): 95 µM
TGI (LOX IMVI melanoma): > 100 µM
TGI (SR leukemia): > 100 µM
TGI (HL-60(TB) leukemia): 79.7 µM
TGI (UACC-257 melanoma): > 100 µM
TGI (HOP-18 NSCLC): > 100 µM
TGI (LXFL 529 NSCLC): > 100 µM
